In ChEMBL document CHEMBL1131267, “Diastereoselective synthesis of octahydro-14H-benzo[g]quinolino-[2,3-a]quinolidines. Improved cytotoxic activity against human brain tumor cell lines as a result of the increased rigidity of the molecular backbone” (1998):

Key:
Assay type in all cases: functional
Details in all cases: read-out: LC50 (the source's name)
[1] = test system: D283 Med; assay: Compound was evaluated for cytotoxicity against human medulloblastoma (D283 Med) cell line
[2] = test system: A 172; assay: Compound was evaluated for cytotoxicity against human glioblastoma (A172) cell line
[3] = test system: T98G; assay: Compound was evaluated for cytotoxicity against human glioblastoma (T98G) cell line

| SMILES | CC50 [1] | CC50 [2] | CC50 [3] |
| --- | --- | --- | --- |
| COc1ccc2c(c1)C(C)(C)[C@H]1CCN3Cc4ccccc4C[C@H]3[C@H]1N2 | 25 µM | 42 µM | 35 µM |
| CC1(C)c2cc(C(F)(F)F)ccc2N[C@@H]2[C@@H]3Cc4ccccc4CN3CC[C@@H]21 | 17 µM | 20 µM | 13 µM |
| CC1(C)c2cc(Cl)ccc2N[C@@H]2[C@@H]3Cc4ccccc4CN3CC[C@@H]21 | 8 µM | 22 µM | 12 µM |
| Cc1ccc2c(c1)C(C)(C)[C@H]1CCN3Cc4ccccc4C[C@H]3[C@H]1N2 | 20 µM | 25 µM | 20 µM |
| CC1(C)c2ccccc2N[C@@H]2[C@@H]3Cc4ccccc4CN3CC[C@@H]21 | 22 µM | 45 µM | 14 µM |
| C=C(C)[C@H]1CCN2Cc3ccccc3C[C@H]2[C@H]1NCc1ccc(Cl)cc1 | 29 µM | 55 µM | 42 µM |
| Cc1cccc2c1N[C@@H]1[C@@H]3Cc4ccccc4CN3CC[C@@H]1C2(C)C | 20 µM | 31 µM | 21 µM |
